From patent EP1009397B1, “USE OF N,N-BIS (PHENYLCARBAMOYLMETHYL) DIMETHYLAMMONIUM CHLORIDE AND DERIVATIVES IN THE TREATMENT OF CHRONIC PAIN” (UCB Farchim S.A., priority 1997, dated 1999)

Columns and labels:
[1] = system: CD-I mouse; experiment: Formalin Paw Test; assay type: in vivo, mice; details: for ED50: subcutaneous
Experimental: In this test a hind paw (footpad) of conscious mice was injected with a formalin solution, which produced a painful stimulus, to which the mice reacted by licking the foot. Pretreatment of the animal with an effective analgesia reduced the pain and consequently the licking behavior. […] At t=0 minutes, either saline, […], 20, 40, 80 or 160 mg/kg was injected subcutaneously under the dorsal skin of the neck of a CD-I mouse (n=8 for each dose of Compound I) that weighed in the range of 20-45 grams. At t=60 minutes, formalin (2 different amounts were used in separate studies) was injected into the right hind paw (footpad) of each mouse, and the animal was released into the observation chamber (24-26°C). The mice were videotaped in groups of four for 60 minutes. The observations were made from viewing the videotapes activity, and the investigators looked for the following pain behavioral traits: licking of the right hind paw; lifting and licking of the right hind paw; resting/sleeping/being still; exploring or grooming (F.V. Abbott, K.B.J. Franklin and R.F. Wesbrook, Pain, 1995, 60 191-202). The corresponding behavioral traits were checked and recorded for each animal every two minutes for sixty minutes after the formalin injection.

[2] = system: CD-1 mice; experiment: Formalin Tail Test; assay type: in vivo
Experimental: The protocol of this test is similar to that for the Paw Test described above, except that the injection of formalin was in the dorsal mid-tail region of the mouse instead of the hind paw. Behaviors such as licking of the tail (with and without lifting the tail), grooming, exploring and resting were recorded every two minutes for sixty minutes after injection of formalin (30 µl of 2.5% formalin)
Two modes of administration (subcutaneous and oral) of Compound I were studied. […] The ED50 was determined to be 40 mg/kg.
In the oral administration study, CD-1 mice weighing 15-30 grams each (n=8 or 4 for each dose of Compound I) were orally administered with either gum arabic (vehicle), 300 mg/kg or 700 mg/kg Compound I, 60 minutes prior to formalin (2.5%, 30 µ1)_injection. Behaviors such as licking of the tail (with and without lifting the tail), grooming, exploring and resting were recorded every two minutes for sixty minutes after injection of formalin (30 µl of 2.5% formalin). At an oral dose of 700mg/kg, Compound I reduced licking by 62%, while at 300 mg/kg, a reduction of 50% was determined

[3] = Acute toxicity in rats; details: rat, in vivo, ip; intraperitoneal administration to rats; read-out: survival dose values (LD50)
[4] = system: human forearm; experiment: Intradermal injections into the human forearm; assay type: in vivo; details: intradermal injections of small volumes of solutions
[5] = Acute toxicity in rabbits; details: rabbit, in vivo; intravenous administration to rabbits; read-out: survival dose values (LD50)
Experimental: The experiments were carried out on animals that were administered intravenously or orally escalating doses of the test compounds.

[6] = Acute toxicity in mice; details: mouse, in vivo, read-out: survival dose values (LD50)
[7] = system: rabbit; details: intravenous administration; cited from earlier work
[8] = system: mouse tail; experiment: Regional analgesic effects in mice (tourniquet at tail base, tail vein injection, tail-flick); assay type: in vivo; details: injection into the tail vein, tourniquet around the base of the tail
Source text: In these experiments a tourniquet is placed around the base of a mouse tail so as to occlude blood flow to and from the tail.

[9] = system: guinea pig; details: intravenous administration; cited from earlier work

SMILES | ED50 ([1]; Mus musculus, sc, 20 µl of 2.0% formalin injected) | ED50 ([1]; Mus musculus, sc, 30 µl of 2.5% formalin injected) | inhibition at 160 mg/kg ([1]; Mus musculus, sc, 20 µl of 2.0% formalin injected, at 160 mg/kg subcutaneous) | alteration of animal behavior ([1]; at the doses of the formalin paw test (up to 160 mg/kg subcutaneous)) | inhibition of the delayed phase of licking ([1]; subcutaneous under the dorsal skin of the neck, 60 minutes before formalin into right hind paw) | ED50 ([2]; Mus musculus, sc, subcutaneous administration, 30 µl of 2.5% formalin) | reduction of licking ([2]; oral 300 mg/kg, 60 minutes prior to formalin (2.5%, 30 µ1)) | reduced licking ([2]; oral dose of 700mg/kg, 60 minutes prior to formalin (2.5%, 30 µ1)) | inhibition of the delayed phase of licking ([2]; subcutaneous administration under the dorsal skin of the neck, 30 µl of 2.5% formalin in dorsal mid-tail region) | LD50 [3] | effect on sensation of heat or touch [4] | inhibition of pain induced by pin-prick [4] | LD50 [5] | LD50 ([6]; ip, intraperitoneal administration to mice) | LD50 ([6]; sc, subcutaneous injection to mice) | LD50 ([6]; oral administration to mice) | Toxicity (LD100) [7] | block of tail-flick in response to heat [8] | block of tail-flick in response to pin-prick [8] | Toxicity (LD100) [9]
C[N+](C)(CC(=O)Nc1ccccc1)CC(=O)Nc1ccccc1.[Cl-] [Compound I, N, N-Bis (phenylcarbamoylmethyl) dimethylammonium chloride] | 50 mg/kg | 145 mg/kg | > 80% | no evident alteration of animal behavior other than the reduced reaction to the noxious stimulus | dose related inhibition of the delayed phase of licking | 40 mg/kg | 50% | 62% | dose related inhibition of the delayed phase of licking | 150 mg/kg | little or no effect on sensation of heat or touch | long-lasting inhibition of pain induced by pin-prick | 17 mg/kg | 125 mg/kg | 264 mg/kg | 117 mg/kg | 50 mg/kg | not to heat | rapidly produced block of tail-flick in response to pin-prick | 36 mg/kg
CCCCN1CCCCC1C(=O)Nc1c(C)cccc1C (centres unmarked) [bupivacaine] |  |  |  |  |  |  |  |  |  |  | inhibited equally sensation of pain, heat and touch | inhibited equally sensation of pain, heat and touch |  |  |  |  |  |  |  | 
CCN(CC)CC(=O)Nc1c(C)cccc1C [lidocaine, reference compound] |  |  |  |  |  |  |  |  |  |  | inhibited equally sensation of pain, heat and touch | inhibited equally sensation of pain, heat and touch |  |  |  |  |  | inhibits responses both to pin-prick and to heat | inhibits responses both to pin-prick and to heat | 
